Several values for one entry are separate records, joined by “and”; a condition that tells them apart may be missing. Equal entries are not always repeated. Entries after “also recorded” stand apart in the source; their conditions may differ. Where two headings read alike, the source gives them in different places.
Experiments:
[1] = test system: SARS-CoV-2; type: cell-based; design: Response: unit not given here
[2] = biological target: SARS-CoV-2 exonuclease complex (nsp14/nsp10) (Severe acute respiratory syndrome coronavirus 2, UniProt P0DTD1); type: biochemical
[3] = Cytotoxicity assay (XTT); type: cell-based; conditions: human
Method: Monolayers of 1.5 × 10^4 cells in 96-well plates were treated for 3 days with various concentrations (semi-log dilutions from 1000 to 10 µM) of the antiviral drugs. Then, 5 mg/ml 2,3-bis-(2-methoxy-4-nitro-5-sulfophenyl)-2H-tetrazolium-5-carboxanilide (XTT) in DMEM was added to the cells in the presence of 0.01% N-methyl dibenzopyrazine methyl sulfate (PMS). After incubating for 4 h at 37 °C, the cells were measured in a spectrophotometer at 492 nm and 620 nm.

[4] = test system: SARS-CoV-2; test: microbe, parasite or virus in culture; type: cell-based; conditions: for EC25: concentration used in combinations; for virus titer: Calu-3, MOI 0.1, three columns per treatment
[5] = Drug2 100 nM alone (Drug1 0 nM)
[6] = Drug2 1000 nM alone (Drug1 0 nM)
[7] = Drug2 5000 nM alone (Drug1 0 nM)
[8] = Table S-1, 3 days treatment, XTT, read-out: CC50
[9] = Drug1 100 nM alone (Drug2 0 nM)
[10] = Drug1 1000 nM alone (Drug2 0 nM)
[11] = Drug1 10000 nM alone (Drug2 0 nM)
[12] = Severe acute respiratory syndrome coronavirus 2, 48 h, Calu-3 cells, MOI 0.1, 48-72 h, PFU in Vero E6, NS5A inhibitor at fixed concentration in combinations
[13] = 30 nM nsp14/nsp10, 500 nM RNA, 30, 100, 300 µM
[14] = combined with Ombitasvir, Calu-3 cells

With `COC(=O)N[C@H](C(=O)N1CCC[C@H]1c1nc2cc([C@H]3CC[C@H](c4cc5nc([C@@H]6CCCN6C(=O)[C@@H](NC(=O)OC)[C@@H](C)OC)[nH]c5cc4F)N3c3cc(F)c(N4CCC(c5ccc(F)cc5)CC4)c(F)c3)c(F)cc2[nH]1)[C@@H](C)OC` [Pibrentasvir] the “Response (percentage of inhibition)” value ([1]; Conc1 0 nM, Conc2 10 nM) was 2%, the “Response (percentage of inhibition)” value ([1]; Conc1 0 nM, Conc2 100 nM) was 20% and the “Response (percentage of inhibition)” value ([1]; Conc1 0 nM, Conc2 1000 nM) was 50%. For the same compound, the “Response (percentage of inhibition)” value ([1]; Conc1 0 nM, Conc2 5000 nM) was 75%, the Response ([1]; Drug2 10 nM alone (Drug1 0 nM)) was 2 and the Response [1, 5] was 20. The Response [1, 6] was 50, the Response [1, 7] was 75 and the “combination effect (SynergyFinder)” value ([1]; with Favipiravir) was “synergistic (scores above 10)”. The “combination effect (SynergyFinder)” value ([1]; with RDV) was “synergistic (scores above 10)”, the “combination effect (SynergyFinder)” value ([1]; with Sofosbuvir) was “additive (between 10 and −10)” and the “combination effect (SynergyFinder)” value ([1]; with Tenofovir) was “additive (between 10 and −10)”. The “inhibition of SARS-CoV-2 exonuclease activity” value ([2]; 500 nM RNA, 50 nM nsp14/nsp10, 37 °C, 15 min, varying amounts of inhibitor (Pibrentasvir 1, 10, 20 μM)) was “reduced exonuclease activity in a concentration-dependent manner”, the “inhibition of SARS-CoV-2 exonuclease activity” value ([2]; 20 μM, Favipiravir-, NHC- and AT-9010-terminated RNA) was “exonuclease activity was largely abrogated” and the “inhibition of SARS-CoV-2 exonuclease activity” value ([2]; 20 µM, RNA with delayed termination by Remdesivir, 400 nM RNA) was “exonuclease activity was inhibited”. For the same compound, the “inhibition of SARS-CoV-2 exonuclease activity” value ([2]; 20 µM, Sofosbuvir- and Remdesivir-terminated RNA) was “exonuclease activity was substantially inhibited”, the “inhibition of SARS-CoV-2 exonuclease activity” value ([2]; 20 µM, Tenofovir-terminated RNA) was “exonuclease activity was almost completely eliminated” and the CC50 at 3 days [3, 8] was 22 ± 3 µM. It also gave an EC25 ([4]; Calu-3 cells) of 0.1 µM.

With `CC(C)OC(=O)OCOP(=O)(CO[C@H](C)Cn1cnc2c(N)ncnc21)OCOC(=O)OC(C)C` [Tenofovir, Tenofovir disoproxil] the Response ([1]; Drug1 10 nM alone (Drug2 0 nM)) was 5, the Response [1, 9] was 30 and the Response [1, 10] was 58.46. The Response [1, 11] was 88.46, the “excision of the incorporated nucleotide analogue from RNA by the exonuclease” value ([2]; no inhibitor, 37 °C, 15 min, compared with A-terminated natural RNA) was “mostly resistant to excision by the SARS-CoV-2 exonuclease” and the CC50 at 3 days [3, 8] was 91 ± 25 µM. For the same compound, the virus titer ([4]; Drug Concentration 1 μM) was 1.02E+06 PFU/mL and 5.76E+05 PFU/mL and 7.98E+05 PFU/mL, the virus titer ([4]; Drug Concentration 10 μM) was 8.00E+04 PFU/mL and 4.00E+04 PFU/mL and 6.00E+04 PFU/mL and the EC50 [4, 12] was 4.3 µM. The “fold increase of potency” value ([4]; by Pibrentasvir (0.1 μM)) was “tenfold”.

With `COC(=O)N[C@H](C(=O)N1CCC[C@H]1C(=O)Nc1ccc([C@@H]2CC[C@@H](c3ccc(NC(=O)[C@@H]4CCCN4C(=O)[C@@H](NC(=O)OC)C(C)C)cc3)N2c2ccc(C(C)(C)C)cc2)cc1)C(C)C` [Ombitasvir] the “Response (percentage of inhibition)” value ([1]; Conc1 0 nM, Conc2 10 nM) was 2%, the “Response (percentage of inhibition)” value ([1]; Conc1 0 nM, Conc2 100 nM) was 20% and the “Response (percentage of inhibition)” value ([1]; Conc1 0 nM, Conc2 1000 nM) was 50%. The “Response (percentage of inhibition)” value ([1]; Conc1 0 nM, Conc2 5000 nM) was 75%, the Response ([1]; Drug2 10 nM alone (Drug1 0 nM)) was 2 and the Response [1, 5] was 20. The Response [1, 6] was 50, the Response [1, 7] was 75 and the “combination effect (SynergyFinder)” value ([1]; with Favipiravir) was “synergistic (scores above 10)”. For the same compound, the “combination effect (SynergyFinder)” value ([1]; with RDV) was “synergistic (scores above 10)”, the “combination effect (SynergyFinder)” value ([1]; with Sofosbuvir) was “synergistic (scores above 10)” and the “combination effect (SynergyFinder)” value ([1]; with Tenofovir) was “synergistic (scores above 10)”. The CC50 at 3 days [3, 8] was 70 ± 12 µM and the EC25 ([4]; Calu-3 cells) was 0.1 µM.

For `CCC(CC)COC(=O)[C@H](C)N[P@](=O)(OC[C@H]1O[C@@](C#N)(c2ccc3c(N)ncnn23)[C@H](O)[C@@H]1O)Oc1ccccc1` [Remdesivir], the “Response (percentage of inhibition)” value ([1]; Conc1 1 nM, Conc2 0 nM) was 20%, the “Response (percentage of inhibition)” value ([1]; Conc1 10 nM, Conc2 0 nM) was 43% and the “Response (percentage of inhibition)” value ([1]; Conc1 100 nM, Conc2 0 nM) was 76.92%. For the same compound, the “Response (percentage of inhibition)” value ([1]; Conc1 1000 nM, Conc2 0 nM) was 99.13%, the CC50 at 3 days [3, 8] was 480 ± 55 µM and the “EC99 Mean” value ([4]; Calu-3 cells, MOI 0.1, 48-72 h, PFU in Vero E6, NS5A inhibitor at fixed concentration in combinations) was 1.1 µM. The virus titer ([4]; Drug Concentration 0.01 μM, listed as RDV) was 6.40E+05 PFU/mL and 5.76E+05 PFU/mL and 6.08E+05 PFU/mL, the virus titer ([4]; Drug Concentration 0.1 μM, listed as RDV) was 3.20E+05 PFU/mL and 1.92E+05 PFU/mL and 2.56E+05 PFU/mL and the virus titer ([4]; Drug Concentration 10 μM) was 2.00E+03 PFU/mL. For the same compound, the “fold improvement of efficacy at the 90% level” value ([4]; by Pibrentasvir (0.1 μM)) was “six-” and the “fold improvement of efficacy at the 99% level” value ([4]; by Pibrentasvir (0.1 μM)) was “threefold”.

In the case of `Cc1cccc(C)c1OCC(=O)N[C@@H](Cc1ccccc1)[C@@H](O)C[C@H](Cc1ccccc1)NC(=O)[C@H](C(C)C)N1CCCNC1=O` [Lopinavir], the “inhibition of SARS-CoV-2 exonuclease activity” value [2, 13] is reported as “exonuclease activity was inhibited; also recorded: inhibit the SARS-CoV-2 exonuclease in a concentration-dependent manner, but with less potency than Pibrentasvir and Ombitasvir”.

For `CC(C)OC(=O)[C@H](C)N[P@](=O)(OC[C@H]1O[C@@H](n2ccc(=O)[nH]c2=O)[C@](C)(F)[C@@H]1O)Oc1ccccc1` [Sofosbuvir], the “Response (percentage of inhibition)” value ([1]; Conc1 10 nM, Conc2 0 nM) was 10%, the “Response (percentage of inhibition)” value ([1]; Conc1 100 nM, Conc2 0 nM) was 20% and the “Response (percentage of inhibition)” value ([1]; Conc1 1000 nM, Conc2 0 nM) was 74.62%. The “Response (percentage of inhibition)” value ([1]; Conc1 10000 nM, Conc2 0 nM) was 76.92%, the CC50 at 3 days [3, 8] was 512 ± 34 µM and the virus titer ([4]; Drug Concentration 0.01 μM) was 6.40E+05 PFU/mL and 1.28E+06 PFU/mL and 9.60E+05 PFU/mL. It also gave a virus titer ([4]; Drug Concentration 1 μM) of 3.52E+05 PFU/mL.

With `NC(=O)c1nc(F)cnc1O` [Favipiravir, 6-fluoro-3-hydroxy-2-pyrazinecarboxamide] the Response ([1]; Drug1 10 nM alone (Drug2 0 nM)) was 10, the Response [1, 9] was 49 and the Response [1, 10] was 63. The Response [1, 11] was 70, the CC50 at 3 days [3] was 670 ± 118 µM and the virus titer ([4]; Drug Concentration 0.01 μM) was 8.96E+05 PFU/mL and 1.41E+06 PFU/mL. The virus titer ([4]; Drug Concentration 0.1 μM) was 5.76E+05 PFU/mL and 7.04E+05 PFU/mL, the virus titer ([4]; Drug Concentration 1 μM) was 4.48E+05 PFU/mL and 5.12E+05 PFU/mL and the virus titer ([4]; Drug Concentration 10 μM) was 4.16E+05 PFU/mL and 2.24E+05 PFU/mL. For the same compound, the EC50 [4, 12] was 7.8 µM, the “fold increase of potency” value ([4]; by Pibrentasvir (0.1 μM)) was “tenfold” and the “inhibition of SARS-CoV-2” value [4, 14] was 2 log10. The “reduction of virus replication” value [4, 14] was 99%.

In the case of `CC(C)c1nc(CN(C)C(=O)N[C@H](C(=O)N[C@@H](Cc2ccccc2)C[C@H](O)[C@H](Cc2ccccc2)NC(=O)OCc2cncs2)C(C)C)cs1` [Ritonavir], the “inhibition of SARS-CoV-2 exonuclease activity” value [2, 13] is reported as “exonuclease activity was inhibited; also recorded: inhibit the SARS-CoV-2 exonuclease in a concentration-dependent manner, but with less potency than Pibrentasvir and Ombitasvir”.

With `COC(=O)N[C@H](C(=O)N1CCC[C@H]1c1nc(-c2ccc(-c3ccc(-c4c[nH]c([C@@H]5CCCN5C(=O)[C@@H](NC(=O)OC)C(C)C)n4)cc3)cc2)c[nH]1)C(C)C` [Daclatasvir] the “Response (percentage of inhibition)” value ([1]; Conc1 0 nM, Conc2 100 nM) was 3%, the “Response (percentage of inhibition)” value ([1]; Conc1 0 nM, Conc2 500 nM) was 10% and the “Response (percentage of inhibition)” value ([1]; Conc1 0 nM, Conc2 1000 nM) was 45%. For the same compound, the “Response (percentage of inhibition)” value ([1]; Conc1 0 nM, Conc2 5000 nM) was 62%, the Response [1, 5] was 3 and the Response ([1]; Drug2 500 nM alone (Drug1 0 nM)) was 10. For the same compound, the Response [1, 6] was 45, the Response [1, 7] was 62 and the “combination effect (SynergyFinder)” value ([1]; with RDV) was “additive (between 10 and −10)”. For the same compound, the “combination effect (SynergyFinder)” value ([1]; with the other RdRp inhibitors tested (Fig. 8b-d)) was “synergistic (scores above 10)”, the CC50 at 3 days [3, 8] was 38 ± 5 µM and the EC25 ([4]; Calu-3 cells) was 0.5 µM. It also gave an EC50 [4, 12] of 0.7 µM and an EC90 [4, 12] of 3.8 µM.
